For data set [1] the following is noted: cited from earlier work. An excerpt: Vasoactive intestinal peptide receptor 2 (VIPR2) is a class-B G protein-coupler receptor that participates in various physiological function by interacting with its ligand vasoactive intestinal peptide (VIP). VIP–VIPR2 signaling has attracted attention as a drug target in the fields of central nervous system diseases, oncology, and immunity. In 2021, we generated 13-mer bicyclic peptide KS-133 as a potent and selective antagonist to VIPR2 [1]. […] Generally, peptides are rapidly degraded by proteases, and even if they are resistant to degradation, they are prematurely excreted from the body via renal filtration. Thus, frequent dosing is needed, reducing patients’ quality of life. KS-133 is stable in plasma for at least 24 h. Unfortunately, daily dosing is required for the anti-tumor effects of KS-133 in vivo. A versatile method for improving the pharmacokinetics of peptides is conjugation with polyethylene glycol, but this req ...

The nature of data set [2]: In vivo pharmacokinetic study, plasma LC-MS/MS. As to conditions: mouse, iv, 1 nmol/g body weight, male ICR mice, mean ± SD. The text has this:
These animal experiments were approved by the Animal Care and Use Committee of Osaka University (approval No. Douyaku 30-3-2) and conducted at Osaka University in accordance with the aforementioned guidelines. LC–MS/MS data were obtained using an LCMS-8060NX MS system (Shimadzu Corp., Kyoto, Japan) connected to a Nexera X3 UHPLC system (Shimadzu) equipped with a Peptide BEH C18 column (1.7 μm, 2.1 × 50 mm, Waters Corp., Milford, MA, USA). Mobile phase A was 0.1% formic acid in water, and mobile phase B was acetonitrile. The elution profile of mobile phase B was 5% isocratic between 0 to 1 min, linear gradient from 5% to 50% between 1 to 1.5 min, and increase from 50% to 75% between 1.5 to 3 min. The flow rate was 0.2 mL/min. For pharmacokinetic studies, free or nanoformulated KS-133 was administered intravenously or subcutaneously to male ICR mice at 1 nmol/g body weight. Serial blood samples were collected from the tail vein using heparinized capillary tubes at the indicated times after administration. The plasma (5 μL) obtained from each blood sample was mixed with 10 μL of 0.1% formic acid in 50% (v/v) acetonitrile/water, and subsequently, 50 μL of acetonitrile was added. After centrifugation, aliquots (50 μL) of the supernatant were mixed with equal volumes of 0.2% formic acid in water and then injected into the LC–MS/MS system. Pharmacokinetic parameters were obtained from the plasma concentration–time data by non-compartmental analysis using Phoenix WinNonlin Software (Certara Companies, NJ, USA).
Fig 4 Pharmacokinetic study of KS-133 and KS-133 NPs in mice. Concentration of peptides in plasma at indicated time points after administration of peptide with or without nanoformulation are presented. (A) Intravenous administration of KS-133 (n = 3, 1 nmol/g, mean ± SD). (B) Subcutaneous administration of KS-133 and KS-133 NPs (n = 5, 1 nmol/g, mean ± SD). (C) Blood samples were collected at the indicated times. The concentration of KS-133 in plasma was determined by LC–MS/MS (mean ± SD, *p < 0.05 by Student’s t-test). The pharmacokinetic parameters Cmax (μM), tmax (h), t1/2 (h), AUC0-t (μmol·h/L), AUC0-inf,pred (μmol·h/L), and MRTinf,pred (h) were calculated as described in the “Materials and methods” section. […]

Structures are written as SMILES. Where a SMILES comes first, the peptide text is derived from it. Bridges are numbered along the chain shown (N, C = ends).

What is called AUC(0-t) is exposure summed from dosing to a finite time, without extrapolation to infinity. A low value points to low exposure. As for `CC[C@H](C)[C@H](NC(=O)[C@H](CC(C)C)NC(=O)[C@@H]1CC(=O)NCCCC[C@@H]2NC(=O)[C@@H]3CCCN3C(=O)[C@H](CC(C)C)NC(=O)[C@H](Cc3ccc(O)cc3)NC(=O)[C@@H]3CCCN3C(=O)[C@@H]3CCCN3C(=O)[C@@H](NC(C)=O)CSSC[C@H](NC(=O)[C@H](CC(C)C)NC(=O)[C@H](Cc3ccc(O)cc3)NC2=O)C(=O)N1)C(N)=O` [KS-133] (Ac-CPPYLPKYLCDLI-NH2; disulfide 1-10; lactam 7-11), the protease degradation entry in data set [1] was “resistant to protease degradation”. Further, in data set [1] (plasma), the “time stable in plasma” value was “at least 24 h”. In data set [2] (i.v., n = 3, read-out: AUC0-inf, pred), the AUC(0-inf) was found to be 10.1 ± 1.73 µM·h. For the same compound, the MRT in data set [2] (i.v., n = 3, read-out: MRTinf, pred) amounted to 58.8 ± 6.6 min. Besides, the half-life in data set [2] (i.v., non-compartmental, n = 3, read-out: t1/2 (elimination half-life from plasma) (converted)) is 40.8 min. The compound further showed an AUC(0-t) in data set [2] (n = 3) of 7.51 ± 1.77 µM·h.

These data come from publication PMC10321640, “The VIPR2-selective antagonist KS-133 changes macrophage polarization and exerts potent anti-tumor effects as a single agent and in combination with an anti-PD-1 antibody” (PLOS ONE, 2023).
